The values below come from ChEMBL document CHEMBL3600314, “Discovery and characterization of a potent and selective EP4 receptor antagonist” (Bioorg Med Chem Lett, 2015).

Data set [1] deals with T1, Prostaglandin E2 receptor EP4 subtype (Homo sapiens, UniProt P35408). The data set is described as follows: Displacement of [3H]-PGE2 from recombinant human EP4 receptor expressed in HEK293 cell membranes after 90 mins by liquid scintillation counting analysis. (Loss of bound radioactivity is the signal in a displacement assay; it reports binding, not function.)
T1 sequence (P35408 whole entry): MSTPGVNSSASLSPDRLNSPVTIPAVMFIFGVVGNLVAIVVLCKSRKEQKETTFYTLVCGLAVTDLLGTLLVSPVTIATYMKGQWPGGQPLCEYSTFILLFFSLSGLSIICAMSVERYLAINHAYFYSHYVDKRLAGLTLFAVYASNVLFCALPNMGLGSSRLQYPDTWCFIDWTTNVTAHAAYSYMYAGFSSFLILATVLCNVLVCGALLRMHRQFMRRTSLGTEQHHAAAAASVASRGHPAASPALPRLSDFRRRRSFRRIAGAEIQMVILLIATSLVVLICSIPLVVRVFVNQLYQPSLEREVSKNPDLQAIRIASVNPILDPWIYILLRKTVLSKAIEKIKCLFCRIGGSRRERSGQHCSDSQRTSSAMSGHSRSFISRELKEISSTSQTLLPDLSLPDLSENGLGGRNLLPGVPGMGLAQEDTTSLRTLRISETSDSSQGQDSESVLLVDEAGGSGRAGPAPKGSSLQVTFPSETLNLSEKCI
For data set [2], the target named is T1, Prostaglandin E2 receptor EP4 subtype. Nature of the data set: Antagonist activity at recombinant human EP4 receptor expressed in HEK293 cells assessed as inhibition of PGE2-stimulated cAMP accumulation by scintillation proximity assay in presence of [125I]-cAMP. The format is functional, cell-based.
For data set [3] the target is unchanged. The data set is described as follows: Antagonist activity at EP4 receptor in LPS-stimulated human whole blood assessed as inhibition of PGE2-induced TNF-alpha reduction preincubated for 30 mins followed by PGE2 addition measured after 24 hrs by ELISA.
Data set [4] concerns the target T2, Prostaglandin E2 receptor EP2 subtype (Homo sapiens, UniProt P43116). Nature of the data set: Antagonist activity at recombinant human EP2 receptor expressed in CHO cells assessed as inhibition of PGE2-stimulated cAMP accumulation at 1 uM by scintillation proximity assay in presence of [125I]-cAMP. The format is functional, cell-based. (In general: cAMP levels reflect the balance of adenylyl cyclase and phosphodiesterase activity.)

Data set [5] deals with T2, Prostaglandin E2 receptor EP2 subtype. Nature of the data set: Agonist activity at recombinant human EP2 receptor expressed in CHO cells assessed as induction of cAMP accumulation at 1 uM after 15 mins by scintillation proximity assay in presence of [125I]-cAMP. The format is functional, cell-based.
The target in data set [6] is Prostaglandin E synthase (Homo sapiens) (UniProt O14684). Nature of the data set: Inhibition of microsomal PGES-1 (unknown origin) up to 62.5 uM.
Data set [7] deals with Cytochrome P450 1A2 (Homo sapiens, UniProt P05177). The data set is described as follows: Inhibition of CYP1A2 (unknown origin). The format is ADME.
In data set [8] the target is Cytochrome P450 2B6 (Homo sapiens, UniProt P20813). The data set is described as follows: Inhibition of CYP2B6 (unknown origin). The format is ADME.
In data set [9] the target is Cytochrome P450 2C19 (Homo sapiens, UniProt P33261). Nature of the data set: Inhibition of CYP2C19 (unknown origin). The format is ADME.
Data set [10] concerns the target Cytochrome P450 2C8 (Homo sapiens, UniProt P10632). Nature of the data set: Inhibition of CYP2C8 (unknown origin). The format is ADME.
Data set [11] addresses Cytochrome P450 2C9 (Homo sapiens, UniProt P11712). The data set is described as follows: Inhibition of CYP2C9 (unknown origin). The format is ADME.
Data set [12] has as its target Cytochrome P450 2D6 (Homo sapiens, UniProt P10635). The data set is described as follows: Inhibition of CYP2D6 (unknown origin). The format is ADME.
In data set [13] the target is Cytochrome P450 3A4 (Homo sapiens, UniProt P08684). Nature of the data set: Inhibition of CYP3A4 (unknown origin). The format is ADME.
Data set [14] addresses Adenosine receptor A3 (Homo sapiens) (UniProt P0DMS8). The data set is described as follows: Inhibition of human adenosine A3 receptor at 10 uM relative to control.
Data set [15] addresses Adrenergic receptor alpha-1 (Rattus norvegicus) (UniProt P15823+P23944+P43140). The data set is described as follows: Inhibition of rat adrenergic alpha1 receptor at 10 uM relative to control.
Data set [16] deals with Adrenergic receptor alpha-2 (Rattus norvegicus) (UniProt P22086+P19328+P22909). The data set is described as follows: Inhibition of rat adrenergic alpha2 receptor at 10 uM relative to control.
In data set [17] the target is Beta-1 adrenergic receptor (Homo sapiens) (UniProt P08588). Nature of the data set: Inhibition of human adrenergic beta1 receptor at 10 uM relative to control.
For data set [18], the target named is Beta-2 adrenergic receptor (Homo sapiens) (UniProt P07550). Nature of the data set: Inhibition of human adrenergic beta2 receptor at 10 uM relative to control.
Data set [19] has as its target D(1A) dopamine receptor (Homo sapiens) (UniProt P21728). The data set is described as follows: Inhibition of human dopamine D1 receptor at 10 uM relative to control.
In data set [20] the target is D(2) dopamine receptor (Homo sapiens) (UniProt P14416). The data set is described as follows: Inhibition of human dopamine D2S receptor at 10 uM relative to control.
The target in data set [21] is Histamine H1 receptor (Homo sapiens) (UniProt P35367). The data set is described as follows: Inhibition of human histamine H1 receptor at 10 uM relative to control.
Chain of Histamine H1 receptor (Homo sapiens) (P35367 whole entry): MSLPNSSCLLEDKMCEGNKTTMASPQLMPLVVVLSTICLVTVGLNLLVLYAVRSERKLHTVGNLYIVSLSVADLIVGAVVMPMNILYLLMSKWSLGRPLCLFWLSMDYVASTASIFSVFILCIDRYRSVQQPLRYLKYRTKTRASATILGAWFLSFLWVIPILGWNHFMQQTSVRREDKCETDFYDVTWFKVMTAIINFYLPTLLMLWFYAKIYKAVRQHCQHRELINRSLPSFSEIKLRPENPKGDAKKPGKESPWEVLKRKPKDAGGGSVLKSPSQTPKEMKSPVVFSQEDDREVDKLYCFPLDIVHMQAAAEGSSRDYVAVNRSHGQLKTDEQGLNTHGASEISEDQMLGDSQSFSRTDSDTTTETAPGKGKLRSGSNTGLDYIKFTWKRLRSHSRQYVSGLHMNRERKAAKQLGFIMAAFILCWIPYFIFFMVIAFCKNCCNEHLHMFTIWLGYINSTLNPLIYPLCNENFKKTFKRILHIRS
Data set [22] has as its target Muscarinic acetylcholine receptor M2 (Homo sapiens) (UniProt P08172). The data set is described as follows: Inhibition of human muscarinic M2 receptor at 10 uM relative to control.
Data set [23] concerns the target Muscarinic acetylcholine receptor M3 (Homo sapiens) (UniProt P20309). Nature of the data set: Inhibition of human muscarinic M3 receptor at 10 uM relative to control.
Data set [24] has as its target Mu-type opioid receptor (Homo sapiens) (UniProt P35372). Nature of the data set: Inhibition of human mu opioid receptor at 10 uM relative to control.
In data set [25] the target is 5-hydroxytryptamine receptor 2B (Homo sapiens) (UniProt P41595). Nature of the data set: Inhibition of human 5-HT2B receptor at 10 uM relative to control.
Data set [26] addresses L-type calcium channel dihydropyridine binding site (Homo sapiens, UniProt O60840+Q01668+Q13698+Q13936). The data set is described as follows: Inhibition of L-type calcium channel dihydropyridine binding site (unknown origin) at 10 uM relative to control. The format is protein assay.
For data set [27], the target named is L-type calcium channel diltiazem binding site (Homo sapiens, UniProt O60840+Q01668+Q13698+Q13936). Nature of the data set: Inhibition of L-type calcium channel diltiazem binding site (unknown origin) at 10 uM relative to control. The format is protein assay.
For data set [28], the target named is L-type calcium channel verapamil binding site (Homo sapiens, UniProt O60840+Q01668+Q13698+Q13936). Nature of the data set: Inhibition of L-type calcium channel verapamil binding site (unknown origin) at 10 uM relative to control. The format is protein assay.
The species named for data set [29] is Rattus norvegicus. The data set is described as follows: Inhibition of rat chloride channel at 10 uM relative to control.
In data set [30] the target is Sodium-dependent noradrenaline transporter (Homo sapiens) (UniProt P23975). Nature of the data set: Inhibition of human NE transporter at 10 uM relative to control.
Data set [31] concerns the target Voltage-gated inwardly rectifying potassium channel KCNH2 (Homo sapiens, UniProt Q12809). Nature of the data set: Displacement of [3H]-astemizole from human ERG up to 100 uM.
Data set [32] is described as follows: Solubility of the compound in FasSIF. The format is physicochemical.
The nature of data set [33]: Solubility of the compound in FedSIF. The format is physicochemical. Conditions: FeSSIF.
Data set [34] in a line: Solubility of the compound in SGF. The format is physicochemical.
The nature of data set [35]: Tmax in Beagle dog at 10 mg/kg, po. The format is ADME, organism-based, Canis lupus familiaris. Conditions: in vivo.
Data set [36] can be described thus: Oral bioavailability in Beagle dog at 10 mg/kg. The format is ADME, organism-based, Canis lupus familiaris. Conditions: in vivo.
A short description of data set [37]: Clearance in Beagle dog at 10 mg/kg, po and 1 mg/kg, iv. The format is ADME, organism-based, Canis lupus familiaris. Conditions: in vivo.
Data set [38] can be described thus: Plasma concentration in Beagle dog at 10 mg/kg, po measured over 12 hrs. The format is ADME, organism-based, Canis lupus familiaris.
The nature of data set [39]: Plasma concentration in Beagle dog at 10 mg/kg, po measured over 24 hrs. The format is ADME, organism-based, Canis lupus familiaris.
For data set [40], the target named is Prostaglandin E2 receptor EP1 subtype (Homo sapiens, UniProt P34995). The data set is described as follows: Displacement of [3H]-PGE2 from human EP1 receptor by liquid scintillation counting analysis.
Chain of Prostaglandin E2 receptor EP1 subtype (P34995 whole entry): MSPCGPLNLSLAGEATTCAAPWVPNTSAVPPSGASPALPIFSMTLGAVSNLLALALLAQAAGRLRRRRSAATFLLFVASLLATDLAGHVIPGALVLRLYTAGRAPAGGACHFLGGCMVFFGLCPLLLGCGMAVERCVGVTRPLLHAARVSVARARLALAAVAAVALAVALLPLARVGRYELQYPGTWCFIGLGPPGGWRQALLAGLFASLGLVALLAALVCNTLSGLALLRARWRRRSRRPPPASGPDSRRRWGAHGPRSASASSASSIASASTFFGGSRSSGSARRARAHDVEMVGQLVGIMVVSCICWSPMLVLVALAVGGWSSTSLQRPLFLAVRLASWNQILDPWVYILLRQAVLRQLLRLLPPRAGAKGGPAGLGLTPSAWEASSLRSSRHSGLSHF
Data set [41] deals with T2, Prostaglandin E2 receptor EP2 subtype. Nature of the data set: Displacement of [3H]-PGE2 from human EP2 receptor by liquid scintillation counting analysis.
The target in data set [42] is Prostaglandin E2 receptor EP3 subtype (Homo sapiens, UniProt P43115). The data set is described as follows: Displacement of [3H]-PGE2 from human EP3 receptor by liquid scintillation counting analysis.
Chain of Prostaglandin E2 receptor EP3 subtype (P43115 whole entry): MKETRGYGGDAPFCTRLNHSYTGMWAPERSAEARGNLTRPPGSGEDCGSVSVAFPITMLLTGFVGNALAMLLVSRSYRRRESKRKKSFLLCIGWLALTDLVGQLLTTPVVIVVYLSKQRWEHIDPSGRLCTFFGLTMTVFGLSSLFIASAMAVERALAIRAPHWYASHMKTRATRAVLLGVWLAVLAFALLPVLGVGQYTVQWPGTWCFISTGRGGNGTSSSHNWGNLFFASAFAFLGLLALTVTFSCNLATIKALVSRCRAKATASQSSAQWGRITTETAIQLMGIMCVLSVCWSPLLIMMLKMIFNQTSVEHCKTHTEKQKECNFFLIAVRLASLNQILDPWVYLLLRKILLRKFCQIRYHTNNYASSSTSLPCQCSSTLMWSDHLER

The structures appear in SMILES notation. The source made the active and inactive calls. No cut-off for these calls is given here.

T2 sequence (P43116 whole entry): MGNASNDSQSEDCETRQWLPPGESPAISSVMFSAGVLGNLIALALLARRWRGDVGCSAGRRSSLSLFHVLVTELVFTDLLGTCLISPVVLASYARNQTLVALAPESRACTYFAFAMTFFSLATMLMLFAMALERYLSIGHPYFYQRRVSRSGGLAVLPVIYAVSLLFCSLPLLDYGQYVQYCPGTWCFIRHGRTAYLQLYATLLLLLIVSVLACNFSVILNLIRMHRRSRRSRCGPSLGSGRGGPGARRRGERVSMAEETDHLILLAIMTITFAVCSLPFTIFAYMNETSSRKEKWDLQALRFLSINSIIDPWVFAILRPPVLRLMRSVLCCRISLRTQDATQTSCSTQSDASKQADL
Chain of Muscarinic acetylcholine receptor M3 (Homo sapiens) (P20309 whole entry, looked up): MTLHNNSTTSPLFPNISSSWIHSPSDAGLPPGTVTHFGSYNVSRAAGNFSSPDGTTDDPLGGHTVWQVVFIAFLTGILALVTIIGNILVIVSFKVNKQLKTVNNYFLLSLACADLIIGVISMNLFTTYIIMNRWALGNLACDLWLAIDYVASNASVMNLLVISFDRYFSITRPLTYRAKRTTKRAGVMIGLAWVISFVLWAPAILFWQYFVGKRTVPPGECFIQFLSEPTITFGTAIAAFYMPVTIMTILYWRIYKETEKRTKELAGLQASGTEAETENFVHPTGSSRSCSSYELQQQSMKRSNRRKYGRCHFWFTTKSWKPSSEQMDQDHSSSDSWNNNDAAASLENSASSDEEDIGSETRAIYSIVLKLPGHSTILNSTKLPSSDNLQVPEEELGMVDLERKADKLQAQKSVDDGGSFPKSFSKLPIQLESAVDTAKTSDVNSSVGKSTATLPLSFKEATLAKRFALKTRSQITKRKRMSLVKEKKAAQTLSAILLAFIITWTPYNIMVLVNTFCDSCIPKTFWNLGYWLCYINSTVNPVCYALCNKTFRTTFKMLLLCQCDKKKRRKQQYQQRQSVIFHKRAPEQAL
Chain of Voltage-gated inwardly rectifying potassium channel KCNH2 (Q12809 whole entry): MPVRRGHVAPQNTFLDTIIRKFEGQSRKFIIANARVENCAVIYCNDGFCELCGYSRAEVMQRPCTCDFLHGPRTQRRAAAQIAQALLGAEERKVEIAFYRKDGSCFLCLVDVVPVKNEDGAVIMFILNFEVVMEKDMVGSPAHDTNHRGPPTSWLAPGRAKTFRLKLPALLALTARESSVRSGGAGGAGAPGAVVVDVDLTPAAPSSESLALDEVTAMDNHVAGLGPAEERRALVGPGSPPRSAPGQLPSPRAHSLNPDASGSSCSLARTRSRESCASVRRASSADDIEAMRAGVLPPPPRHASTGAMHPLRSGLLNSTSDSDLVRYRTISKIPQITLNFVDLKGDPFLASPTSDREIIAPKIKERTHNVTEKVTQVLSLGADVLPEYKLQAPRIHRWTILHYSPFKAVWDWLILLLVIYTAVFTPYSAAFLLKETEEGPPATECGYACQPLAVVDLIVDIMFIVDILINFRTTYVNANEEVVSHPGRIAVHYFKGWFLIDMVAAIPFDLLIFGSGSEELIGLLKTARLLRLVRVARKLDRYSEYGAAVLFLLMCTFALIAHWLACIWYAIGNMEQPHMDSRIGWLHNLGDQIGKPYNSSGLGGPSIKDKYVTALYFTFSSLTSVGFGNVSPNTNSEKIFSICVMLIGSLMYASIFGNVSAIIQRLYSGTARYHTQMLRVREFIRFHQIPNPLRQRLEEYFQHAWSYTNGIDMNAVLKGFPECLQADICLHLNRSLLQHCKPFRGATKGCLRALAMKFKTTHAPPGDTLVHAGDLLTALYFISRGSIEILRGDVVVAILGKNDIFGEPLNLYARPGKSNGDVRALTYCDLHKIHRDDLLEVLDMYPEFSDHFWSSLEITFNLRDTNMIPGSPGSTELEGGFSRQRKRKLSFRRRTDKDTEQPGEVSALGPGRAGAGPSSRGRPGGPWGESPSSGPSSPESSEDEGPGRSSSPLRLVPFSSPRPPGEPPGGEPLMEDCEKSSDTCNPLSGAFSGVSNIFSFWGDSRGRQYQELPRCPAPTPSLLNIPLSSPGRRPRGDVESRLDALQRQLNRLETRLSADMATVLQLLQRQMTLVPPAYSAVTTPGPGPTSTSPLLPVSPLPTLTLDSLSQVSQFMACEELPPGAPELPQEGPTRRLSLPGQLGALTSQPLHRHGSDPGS
Chain of Cytochrome P450 2C9 (P11712 whole entry): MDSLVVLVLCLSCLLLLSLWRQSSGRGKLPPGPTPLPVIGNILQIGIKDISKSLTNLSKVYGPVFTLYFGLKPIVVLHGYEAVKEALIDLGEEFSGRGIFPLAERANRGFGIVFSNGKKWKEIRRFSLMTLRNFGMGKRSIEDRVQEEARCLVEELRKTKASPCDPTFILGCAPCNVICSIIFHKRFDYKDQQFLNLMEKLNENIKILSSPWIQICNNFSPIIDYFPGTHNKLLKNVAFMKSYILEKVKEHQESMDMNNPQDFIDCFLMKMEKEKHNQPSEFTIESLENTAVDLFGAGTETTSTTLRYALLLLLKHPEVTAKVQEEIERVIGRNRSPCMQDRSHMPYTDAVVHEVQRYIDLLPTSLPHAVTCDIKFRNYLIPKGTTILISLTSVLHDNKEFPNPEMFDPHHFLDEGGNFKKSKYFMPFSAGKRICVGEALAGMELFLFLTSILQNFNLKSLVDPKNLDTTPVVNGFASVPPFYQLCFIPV
Chain of Cytochrome P450 2D6 (P10635 whole entry): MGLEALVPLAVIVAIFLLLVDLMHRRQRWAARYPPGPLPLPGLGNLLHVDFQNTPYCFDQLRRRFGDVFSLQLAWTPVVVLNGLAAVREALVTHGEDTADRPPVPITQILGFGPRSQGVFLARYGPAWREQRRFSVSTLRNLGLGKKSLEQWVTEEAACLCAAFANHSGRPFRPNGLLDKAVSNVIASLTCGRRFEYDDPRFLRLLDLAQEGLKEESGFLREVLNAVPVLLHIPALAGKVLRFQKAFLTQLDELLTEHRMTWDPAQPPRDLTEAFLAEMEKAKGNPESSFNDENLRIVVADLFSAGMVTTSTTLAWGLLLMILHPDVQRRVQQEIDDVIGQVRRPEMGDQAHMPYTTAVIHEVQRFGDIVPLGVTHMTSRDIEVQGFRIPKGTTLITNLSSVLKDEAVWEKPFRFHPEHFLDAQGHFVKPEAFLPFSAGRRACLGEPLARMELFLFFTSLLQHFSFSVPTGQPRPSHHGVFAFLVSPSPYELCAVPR

Broadly, the IC50 is the point on the concentration scale where inhibition reaches its midpoint. What is called Ki is the equilibrium dissociation constant of an inhibitor or competing ligand from its target. On to `C[C@H](NC(=O)[C@H]1CCCCN1CCOc1ccc(F)cc1)c1ccc(C(=O)O)cc1`, for which the IC50 stood at 0.0718 µM in data set [1], 0.00287 µM in data set [2] and 0.121 µM in data set [3]. For the same compound, the Ki in data set [1] was 0.0404 µM.

For the compound `O=C(O)c1ccc(C2(NC(=O)[C@H]3CCCCN3CCOc3ccccc3)CC2)cc1`, the IC50 in [1] turned out to be 0.0778 µM; in data set [2], 0.00542 µM; in data set [3], 0.586 µM. The Ki in [1] amounted to 0.0448 µM.

For the compound `CCc1nc2c(C)nc(C)cc2n1-c1ccc(CCNC(=O)NS(=O)(=O)c2ccc(C)cc2)cc1` [GRAPIPRANT], the IC50 came to 0.689 µM in data set [1] and 1.61 µM in data set [3].

The inhibition is the drop in the measured response relative to a control, in per cent. In general, solubility refers to the concentration that dissolves in the medium under given conditions. Read a low solubility as a poorly soluble substance. As usually defined, the Tmax is the time from dosing to the highest level. As a reminder, the bioavailability is the share of a dose that reaches the circulation, judged against a reference dose that is usually intravenous. Consider `C[C@H](NC(=O)[C@H]1CCCCN1CCOc1ccccc1)c1ccc(C(=O)O)cc1.Cl`, for which the inhibition entry in data set [4] is “Active”. Also, the outcome in [5] was Active. Also, the inhibition entry in [6] is “inactive”. Also, the IC50 in [7], in data set [8], in data set [9], in data set [10], in data set [11] and in data set [12] was > 10 µM throughout. Besides, the IC50 in [13] is > 10 µM; in data set [40], > 25 µM; in [41] it was 1.63 µM; in [42] it was > 25 µM. For the same compound, the inhibition in data set [14] is -9%; in data set [15], 1%; in data set [16], -6%; in [17], 6%; in data set [18], 2%; in data set [19], -6%. In addition, the inhibition was 13% in data set [20]; 7% in data set [21]; -1% in data set [22]; 7% in data set [23]; 1% in data set [24]; 10% in data set [25]. Moreover, the inhibition in [29] was 6%; in data set [30], 7%. Besides, the inhibition at 10 µM was -60% in data set [26], -7% in data set [27] and 5% in [28]. In data set [31], the “inhibition (INH)” value is listed as “Not Active”. Also, the solubility is > 2 mg/mL in [32], > 2 mg/mL in data set [33] and 1.32 mg/mL in data set [34]. For the same compound, the Tmax in [35] is 15 min. In data set [36], this compound returned a bioavailability of 81%. The compound also registered a clearance in data set [37] of 0.312 L/h/kg. The concentration at 12 h in [38] is > 1 µM. For the same compound, in data set [39], the concentration at 24 h is > 0.1 µM. Further, the Ki in [40] was > 17.5 µM; in data set [42], > 12.7 µM.

In the case of `CC[C@H](NC(=O)[C@H]1CCCCN1CCOc1ccccc1)c1ccc(C(=O)O)cc1`, the IC50 in [1] was determined as 0.232 µM; in data set [2], 0.0144 µM; in data set [3], 0.291 µM. For the same compound, in data set [1], the Ki was 0.129 µM.

With `C[C@H](NC(=O)[C@H]1CCCCN1CCOc1ccc(C#N)cc1)c1ccc(C(=O)O)cc1`, the results for the IC50 in data set [1], in data set [2] and in data set [3] were 0.621 µM, 0.0358 µM and 1.21 µM, respectively. In addition, the Ki in data set [1] was found to be 0.372 µM.

`O=C(O)c1ccc(CNC(=O)[C@H]2CCCCN2CCOc2ccccc2)cc1`: the IC50 in data set [1] came to 0.203 µM; in [2], 0.0181 µM; in data set [3], 0.899 µM. Also, in data set [1], the Ki was 0.126 µM.
